# Key:
# EphB3 [1] = biological target: T1, EphB3 (Homo sapiens, UniProt P54753); test: Competition / pulse-chase with probe 10 for EphB3 occupancy in HEK293 cells
# T1 sequence (P54753 34-998): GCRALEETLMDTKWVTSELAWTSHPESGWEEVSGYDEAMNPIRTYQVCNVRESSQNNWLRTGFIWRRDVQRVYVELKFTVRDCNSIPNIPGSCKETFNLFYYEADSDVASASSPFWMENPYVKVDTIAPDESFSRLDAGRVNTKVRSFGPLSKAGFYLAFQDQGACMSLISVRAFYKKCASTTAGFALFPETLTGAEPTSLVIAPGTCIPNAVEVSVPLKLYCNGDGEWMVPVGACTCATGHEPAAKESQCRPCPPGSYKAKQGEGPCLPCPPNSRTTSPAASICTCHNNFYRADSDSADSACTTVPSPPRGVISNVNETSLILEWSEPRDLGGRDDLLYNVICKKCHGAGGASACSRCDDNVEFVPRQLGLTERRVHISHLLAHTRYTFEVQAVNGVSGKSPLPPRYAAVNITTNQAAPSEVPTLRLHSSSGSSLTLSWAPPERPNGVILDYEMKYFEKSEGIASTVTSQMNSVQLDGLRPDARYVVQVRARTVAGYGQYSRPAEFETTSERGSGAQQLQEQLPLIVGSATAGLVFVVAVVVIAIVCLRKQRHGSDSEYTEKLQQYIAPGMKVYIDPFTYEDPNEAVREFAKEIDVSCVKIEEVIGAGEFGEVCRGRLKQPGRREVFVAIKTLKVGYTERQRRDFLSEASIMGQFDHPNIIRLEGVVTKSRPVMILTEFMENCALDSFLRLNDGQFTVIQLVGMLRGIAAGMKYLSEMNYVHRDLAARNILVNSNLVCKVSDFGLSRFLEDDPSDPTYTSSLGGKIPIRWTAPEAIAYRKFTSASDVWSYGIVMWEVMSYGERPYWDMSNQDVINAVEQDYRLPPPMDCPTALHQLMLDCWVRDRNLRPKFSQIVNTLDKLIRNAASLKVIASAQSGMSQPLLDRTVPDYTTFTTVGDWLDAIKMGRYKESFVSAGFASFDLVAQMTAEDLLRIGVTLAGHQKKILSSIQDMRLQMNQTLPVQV
# EphB3 [2] = biological target: T1, EphB3; test: Competition with probe 10 for EphB3 labeling in cell lysate; assay type: binding
# EphB3 WT = biological target: T2, EphB3 WT (Homo sapiens, UniProt P54753); test: EphB3 autophosphorylation in transfected HEK293 cells; assay type: cell-based; details: read-out: IC50, EphB3 autophosphorylation in cells
# T2 sequence (P54753 34-998): T1 sequence (P54753 34-998)
structure (smiles),measurement,setting,value
Cc1ccc(C(=O)Nc2cccc(C(F)(F)F)c2)cc1Nc1nc(-c2cccnc2)nc2c1cnn2C [BHG-712],time to engage EphB3 (preincubation required to block labeling by 10),EphB3 [1]; live cells,over 10 min
same,IC50,"EphB3 [1]; read-out: IC50 for probe labeling of EphB3, competition with 10 (10 nM) in cells",260 nM
same,time to engage EphB3 (preincubation required to compete off labeling by 10),EphB3 [2],over 10 min
same,IC50,EphB3 WT,320 nM

# Source: article PMC7476666 (Journal of the American Chemical Society, 2016)
